{
  "source": "patent US20190008795A1",
  "about": "“COMPOSITIONS FOR TOPICAL APPLICATION OF COMPOUNDS” (Illustris Pharmaceuticals, Inc., priority 2016, published 2019)",
  "key": {"[1]": {"assay": "Transdermal delivery of a small molecule compound (summary)", "assay_type": "in vitro ADME", "design": "key: 0: on a scale using +symbols to reflect extent of the effect; −: on a scale using +symbols to reflect extent of the effect; +/−: on a scale using +symbols to reflect extent of the effect; on a scale using +symbols to reflect extent of the effect; ++: on a scale using +symbols to reflect extent of the effect; +++: on a scale using +symbols to reflect extent of the effect; ++++: on a scale using +symbols to reflect extent of the effect; +++++: on a scale using +symbols to reflect extent of the effect", "conditions": "compound of less than about 850 Da, hyaluronic acid decoy", "source_text": "(§1) It will be appreciated that Examples 1-6, 11, 12 illustrate hyaluronic acid as a decoy molecule exemplary of the decoy molecules contemplated herein. As described above, decoy molecules of collagen and elastin are contemplated, where the molecular weight of the decoy molecule can be selected to tailor the delivery of the agent of interest across the skin. The table below summarizes the effect of the decoy molecule (using the hyaluronic acid as exemplary) on the transdermal delivery of a small molecule compound (e.g, one with a molecular weight of less than about 850 Da), on the transdermal delivery of a macromolecule compound (e.g, a peptide or a protein), on the extent of penetration of the decoy molecule into skin upon topical application, and on the enhancement of water content in skin by the decoy molecule, on a scale using +symbols to reflect extent of the effect."}, "[2]": {"assay": "Penetration of the decoy molecule into skin upon topical application (summary)", "assay_type": "in vitro ADME", "design": "key: 0: on a scale using +symbols to reflect extent of the effect; −: on a scale using +symbols to reflect extent of the effect; +/−: on a scale using +symbols to reflect extent of the effect; on a scale using +symbols to reflect extent of the effect; ++: on a scale using +symbols to reflect extent of the effect; +++: on a scale using +symbols to reflect extent of the effect; ++++: on a scale using +symbols to reflect extent of the effect; +++++: on a scale using +symbols to reflect extent of the effect", "source_text": "as §1"}, "[3]": {"assay": "Transdermal delivery of a macromolecule compound (summary)", "assay_type": "in vitro ADME", "design": "key: 0: on a scale using +symbols to reflect extent of the effect; −: on a scale using +symbols to reflect extent of the effect; +/−: on a scale using +symbols to reflect extent of the effect; on a scale using +symbols to reflect extent of the effect; ++: on a scale using +symbols to reflect extent of the effect; +++: on a scale using +symbols to reflect extent of the effect; ++++: on a scale using +symbols to reflect extent of the effect; +++++: on a scale using +symbols to reflect extent of the effect", "conditions": "peptide or protein, hyaluronic acid decoy", "source_text": "as §1"}, "[4]": {"assay": "Gabapentin delivery into porcine skin grafts, UPLC-mass spectrometer", "assay_type": "in vitro ADME", "conditions": "1% gabapentin in saline, 12-20 hours", "experimental": "Delivery of gabapentin with hyaluronic acid into skin in vitro was measured using porcine skin grafts, and compared to delivery of gabapentin from a composition of gabapentin in saline (with no decoy molecule). Groups consisted of A) 1% gabapentin in saline (n=8 replicates), B) 1% gabapentin plus 1% sodium hyaluronate decoy of 3,000 Da in saline (n=8 replicates) or C) saline alone (n=8 replicates) in donor cells.\nBriefly, tissues were incubated overnight in 0.5 mL of 50% acetonitrile in deionized water at 55° C. with agitation. Calibration standards and tissue extraction solvent samples were diluted 10× in deionized water before analysis. Diluted standards and samples were analyzed at 1 μL injection volumes. Concentrations were reported as μg/g of gabapentin in tissue."}, "[5]": {"conditions": "1 wt. % minocycline, 1% hyaluronic acid decoy or none, p=0.0004", "experimental": "Delivery of minocycline into porcine skin in vitro was measured and compared to delivery of minocycline from a composition of minocycline in saline (i.e, with no decoy molecule). Compositions were prepared containing of 1 wt. % minocycline and 1% of decoy molecule of hyaluronic acid with three molecular weights: 10,000 Da mean, 20,000 Da mean, and 30,000 Da mean. A control formulation containing 1 wt % minocycline in saline was also prepared"}, "[6]": {"conditions": "listed as disaccharide (400 Da)"}},
  "data": [
    {"compound": "hyaluronic acid [Hyaluronic Acid 3000 Da]", "values": [
      {"measurement": "Delivery of a Small Molecule Compound", "setting": "[1]; listed as 3000 Da", "result": "+++"},
      {"measurement": "Hyaluronic Acid Skin Penetration", "setting": "[2]; listed as 3000 Da", "result": "++++"},
      {"measurement": "Delivery of a Macromolecule Compound", "setting": "[3]; listed as 3000 Da", "result": "+"}
    ]},
    {"compound": "hyaluronic acid [Hyaluronic Acid 100,000 Da]", "values": [
      {"measurement": "Delivery of a Small Molecule Compound", "setting": "[1]; listed as 100,000 Da", "result": 0},
      {"measurement": "Hyaluronic Acid Skin Penetration", "setting": "[2]; listed as 100,000 Da", "result": "+/−"},
      {"measurement": "Delivery of a Macromolecule Compound", "setting": "[3]; listed as 100,000 Da", "result": 0}
    ]},
    {"compound": "hyaluronic acid [Hyaluronic Acid 10,000 Da]", "values": [
      {"measurement": "Delivery of a Small Molecule Compound", "setting": "[1]; listed as 10,000 Da", "result": "+++"},
      {"measurement": "Hyaluronic Acid Skin Penetration", "setting": "[2]; listed as 10,000 Da", "result": "++"},
      {"measurement": "Delivery of a Macromolecule Compound", "setting": "[3]; listed as 10,000 Da", "result": "++"}
    ]},
    {"compound": "hyaluronic acid [Hyaluronic Acid 5000 Da]", "values": [
      {"measurement": "Delivery of a Small Molecule Compound", "setting": "[1]; listed as 5000 Da", "result": "+"},
      {"measurement": "Hyaluronic Acid Skin Penetration", "setting": "[2]; listed as 5000 Da", "result": "+++"},
      {"measurement": "Delivery of a Macromolecule Compound", "setting": "[3]; listed as 5000 Da", "result": "+"}
    ]},
    {"compound": "NCC1(CC(=O)O)CCCCC1", "note": "[gabapentin alone, gabapentin]", "values": [
      {"measurement": "gabapentin tissue levels", "setting": "[4]", "result": "0.09 μg of gabapentin per gram of tissue"}
    ]},
    {"compound": "hyaluronic acid [Hyaluronic Acid disaccharide (400 Da)]", "values": [
      {"measurement": "Delivery of a Small Molecule Compound", "setting": "[1]; [6]", "result": 0},
      {"measurement": "Hyaluronic Acid Skin Penetration", "setting": "[2]; [6]", "result": "+++++"},
      {"measurement": "Delivery of a Macromolecule Compound", "setting": "[3]; [6]", "result": 0}
    ]},
    {"compound": "hyaluronic acid [Hyaluronic Acid degraded 5000 Da]", "values": [
      {"measurement": "Delivery of a Small Molecule Compound", "setting": "[1]; listed as degraded 5000 Da", "result": "−"},
      {"measurement": "Hyaluronic Acid Skin Penetration", "setting": "[2]; listed as degraded 5000 Da", "result": "++++"},
      {"measurement": "Delivery of a Macromolecule Compound", "setting": "[3]; listed as degraded 5000 Da", "result": "−"}
    ]},
    {"compound": "hyaluronic acid [Hyaluronic Acid 20,000 Da]", "values": [
      {"measurement": "Delivery of a Small Molecule Compound", "setting": "[1]; listed as 20,000 Da", "result": "++++"},
      {"measurement": "Hyaluronic Acid Skin Penetration", "setting": "[2]; listed as 20,000 Da", "result": "++"},
      {"measurement": "Delivery of a Macromolecule Compound", "setting": "[3]; listed as 20,000 Da", "result": "+++++"}
    ]},
    {"compound": "hyaluronic acid [Hyaluronic Acid 100,000 Da degraded]", "values": [
      {"measurement": "Delivery of a Small Molecule Compound", "setting": "[1]; listed as 100,000 Da degraded", "result": "++++"},
      {"measurement": "Hyaluronic Acid Skin Penetration", "setting": "[2]; listed as 100,000 Da degraded", "result": "+++"},
      {"measurement": "Delivery of a Macromolecule Compound", "setting": "[3]; listed as 100,000 Da degraded", "result": "+++"}
    ]},
    {"compound": "CN(C)c1ccc(O)c2c1C[C@H]1C[C@H]3[C@H](N(C)C)C(O)=C(C(N)=O)C(=O)[C@@]3(O)C(O)=C1C2=O", "note": "[minocycline]", "values": [
      {"measurement": "penetration of minocycline into porcine skin", "setting": "[5]", "result": "low native penetration"}
    ]}
  ]
}
